Experimental data as given in patent US20230263822A1, “MODULATION OF FACTOR 11 EXPRESSION” (Ionis Pharmaceuticals, Inc., priority 2008, published 2023).
Strand notation (5' to 3'): a small letter for the sugar, then the base; units joined by * are phosphorothioate-linked, units joined directly phosphodiester-linked; [ ] holds rarer units or linkages, { } end groups; capitals alone tell only the bases. e = 2'-O-(2-methoxyethyl) (MOE); [5mC] = 5-methylcytosine; d = 2'-deoxy (DNA)

System: human Factor 11 mRNA
Assay: Antisense inhibition of human Factor 11 in HepG2 cells, electroporation, 8,000 nM (Example 30)
Assay type: cell-based
Conditions: electroporation, 8,000 nM antisense oligonucleotide
Experimental: These microwalk gapmers were tested in vitro. Cultured HepG2 cells at a density of 20,000 cells per well were transfected using electroporation with 8,000 nM antisense oligonucleotide. After a treatment period of approximately 24 hours, RNA was isolated from the cells and Factor 11 mRNA levels were measured by quantitative real-time PCR. Factor 11 mRNA levels were adjusted according to total RNA content, as measured by RIBOGREEN. Results are presented as percent inhibition of Factor 11, relative to untreated control cells.
The chimeric antisense oligonucleotides in Table 44 were designed as 5-10-5 MOE, 5-8-5 and 6-8-6 MOE gapmers. The first two listed gapmers in Table 44 are the original gapmers (ISIS 416850 and ISIS 416858) from which ISIS 445493-445543 were designed via microwalk, and are designated by an asterisk. The 5-10-5 gapmers are 20 nucleotides in length, wherein the central gap segment is comprised of ten 2′-deoxynucleotides and is flanked on both sides (in the 5′ and 3′ directions) by wings comprising five nucleotides each. The 5-8-5 gapmers are 18 nucleotides in length, wherein the central gap segment is comprised of eight 2′-deoxynucleotides and is flanked on both sides (in the 5′ and 3′ directions) by wings comprising five nucleotides each. The 6-8-6 gapmers are 20 nucleotides in length, wherein the central gap segment is comprised of eight 2′-deoxynucleotides and is flanked on both sides (in the 5′ and 3′ directions) by wings comprising six nucleotides each. For each of the motifs (5-10-5, 5-8-5 and 6-8-6), each nucleotide in the 5′ wing segment and each nucleotide in the 3′ wing segment has a 2′-MOE modification. The internucleoside linkages throughout each gapmer are phosphorothioate (P=S) linkages. All cytidine residues throughout each gapmer are 5-methylcytidines. “Human Target start site” indicates the 5′-most nucleotide to which the gapmer is targeted in the human sequence. “Human Target stop site” indicates the 3′-most nucleotide to which the gapmer is targeted in the human sequence. Each gapmer listed in Table 44 is targeted to SEQ ID NO: 1 (GENBANK Accession No. NM_000128.3). Each gapmer is Table 44 is also fully cross-reactive with the rhesus monkey Factor 11 gene sequence, designated herein as SEQ ID NO: 274 (exons 1-15 GENBANK Accession No. NW_001118167.1). ‘Rhesus monkey start site’ indicates the 5′-most nucleotide to which the gapmer is targeted in the rhesus monkey sequence. ‘Rhesus monkey stop site’ indicates the 3′-most nucleotide to which the gapmer is targeted to the rhesus monkey sequence.

Substance | Percent inhibition of human Factor 11 mRNA levels [%]
445493 (antisense eA*e[5mC]*eA*eG*eT*eT*dT*d[5mC]*dT*dG*dG*d[5mC]*dA*dG*eG*e[5mC]*e[5mC]*eT*e[5mC]*eG) [compound 445493] | 69
445494 (antisense e[5mC]*eA*e[5mC]*eA*eG*eT*dT*dT*d[5mC]*dT*dG*dG*d[5mC]*dA*eG*eG*e[5mC]*e[5mC]*eT*e[5mC]) [compound 445494] | 85
445495 (antisense eG*e[5mC]*eA*e[5mC]*eA*eG*dT*dT*dT*d[5mC]*dT*dG*dG*d[5mC]*eA*eG*eG*e[5mC]*e[5mC]*eT) [compound 445495] | 89
445496 (antisense eT*eG*e[5mC]*eA*e[5mC]*eA*dG*dT*dT*dT*d[5mC]*dT*dG*dG*e[5mC]*eA*eG*eG*e[5mC]*e[5mC]) [compound 445496] | 87
445497 (antisense eG*eT*eG*e[5mC]*eA*e[5mC]*dA*dG*dT*dT*dT*d[5mC]*dT*dG*eG*e[5mC]*eA*eG*eG*e[5mC]) [compound 445497] | 81
445499 (antisense eT*eG*eG*eT*eG*e[5mC]*dA*d[5mC]*dA*dG*dT*dT*dT*d[5mC]*eT*eG*eG*e[5mC]*eA*eG) [compound 445499] | 75
445500 (antisense eT*eT*eG*eG*eT*eG*d[5mC]*dA*d[5mC]*dA*dG*dT*dT*dT*e[5mC]*eT*eG*eG*e[5mC]*eA) [compound 445500] | 81
445501 (antisense eA*eT*eT*eG*eG*eT*dG*d[5mC]*dA*d[5mC]*dA*dG*dT*dT*eT*e[5mC]*eT*eG*eG*e[5mC]) [compound 445501] | 83
445502 (antisense e[5mC]*eA*eT*eT*eG*eG*dT*dG*d[5mC]*dA*d[5mC]*dA*dG*dT*eT*eT*e[5mC]*eT*eG*eG) [compound 445502] | 83
445506 (antisense eA*e[5mC]*eG*eG*e[5mC]*eA*dT*dT*dG*dG*dT*dG*d[5mC]*dA*e[5mC]*eA*eG*eT*eT*eT) [compound 445506] | 86
445507 (antisense eG*eA*e[5mC]*eG*eG*e[5mC]*dA*dT*dT*dG*dG*dT*dG*d[5mC]*eA*e[5mC]*eA*eG*eT*eT) [compound 445507] | 85
445508 (antisense eG*eG*eA*e[5mC]*eG*eG*d[5mC]*dA*dT*dT*dG*dG*dT*dG*e[5mC]*eA*e[5mC]*eA*eG*eT) [compound 445508] | 81
445510 (antisense eG*e[5mC]*eG*eG*eA*e[5mC]*dG*dG*d[5mC]*dA*dT*dT*dG*dG*eT*eG*e[5mC]*eA*e[5mC]*eA) [compound 445510] | 88
445511 (antisense eA*eG*e[5mC]*eG*eG*eA*d[5mC]*dG*dG*d[5mC]*dA*dT*dT*dG*eG*eT*eG*e[5mC]*eA*e[5mC]) [compound 445511] | 77
445512 (antisense e[5mC]*eA*eG*e[5mC]*eG*eG*dA*d[5mC]*dG*dG*d[5mC]*dA*dT*dT*eG*eG*eT*eG*e[5mC]*eA) [compound 445512] | 79
445514 (antisense eG*eG*e[5mC]*eA*eG*e[5mC]*dG*dG*dA*d[5mC]*dG*dG*d[5mC]*dA*eT*eT*eG*eG*eT*eG) [compound 445514] | 81
445515 (antisense eT*eG*eG*e[5mC]*eA*eG*d[5mC]*dG*dG*dA*d[5mC]*dG*dG*d[5mC]*eA*eT*eT*eG*eG*eT) [compound 445515] | 75
445516 (antisense e[5mC]*eT*eG*eG*e[5mC]*eA*dG*d[5mC]*dG*dG*dA*d[5mC]*dG*dG*e[5mC]*eA*eT*eT*eG*eG) [compound 445516] | 79
